Like-named read-outs stand apart in the source and are kept apart here.
Legend:
Assay type in all cases: cell-based
[1] = molecular target: T1, M1 muscarinic receptor (Homo sapiens, UniProt P11229); test: Functional mobilization of intracellular calcium (FLIPR) in CHO cells expressing M1; details: for M1 Activity: CHO cells expressing M1, FLIPR calcium assay; for Emax: CHO; for EC50: CHO cells expressing M1, FLIPR calcium
T1 construct: expressed in transfected cells; host or cells: CHO (M1-CHO)
T1 sequence (P11229 1-460): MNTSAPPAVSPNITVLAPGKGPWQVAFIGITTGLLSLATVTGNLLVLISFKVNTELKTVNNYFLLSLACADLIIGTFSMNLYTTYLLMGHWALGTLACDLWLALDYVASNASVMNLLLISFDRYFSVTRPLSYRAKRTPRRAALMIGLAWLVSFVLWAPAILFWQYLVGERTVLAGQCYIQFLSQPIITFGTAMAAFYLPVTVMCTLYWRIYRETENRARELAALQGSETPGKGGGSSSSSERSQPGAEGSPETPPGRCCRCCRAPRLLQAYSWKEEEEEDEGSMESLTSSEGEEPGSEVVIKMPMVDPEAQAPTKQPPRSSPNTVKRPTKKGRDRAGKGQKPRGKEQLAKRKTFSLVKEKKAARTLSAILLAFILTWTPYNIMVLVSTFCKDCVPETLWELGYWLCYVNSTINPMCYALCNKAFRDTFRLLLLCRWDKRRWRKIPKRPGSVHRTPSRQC
Method in brief: (§1)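 Recombinant CHO cells loaded with Fluo-3 AM or Calcium 3 dye in pH 7.4 buffer containing 1 mM probenecid, with 0.5% final DMSO. For agonism, compound is added directly. For inhibition, it is preincubated 15 min, or co-applied, before carbachol at EC80. FLIPR fluorescence (ex 488, em 540 nm) is recorded for 60 s.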

[2] = molecular target: T2, M2 muscarinic receptor (Homo sapiens, UniProt P08172); test: Functional mobilization of intracellular calcium (FLIPR) in CHO cells expressing M2; details: for M2 Activity: CHO cells expressing M2, FLIPR calcium assay; for Emax: CHO; for EC50: CHO cells expressing M2, FLIPR calcium
T2 construct: expressed in transfected cells; host or cells: CHO (M2-CHO)
T2 sequence (P08172 1-466): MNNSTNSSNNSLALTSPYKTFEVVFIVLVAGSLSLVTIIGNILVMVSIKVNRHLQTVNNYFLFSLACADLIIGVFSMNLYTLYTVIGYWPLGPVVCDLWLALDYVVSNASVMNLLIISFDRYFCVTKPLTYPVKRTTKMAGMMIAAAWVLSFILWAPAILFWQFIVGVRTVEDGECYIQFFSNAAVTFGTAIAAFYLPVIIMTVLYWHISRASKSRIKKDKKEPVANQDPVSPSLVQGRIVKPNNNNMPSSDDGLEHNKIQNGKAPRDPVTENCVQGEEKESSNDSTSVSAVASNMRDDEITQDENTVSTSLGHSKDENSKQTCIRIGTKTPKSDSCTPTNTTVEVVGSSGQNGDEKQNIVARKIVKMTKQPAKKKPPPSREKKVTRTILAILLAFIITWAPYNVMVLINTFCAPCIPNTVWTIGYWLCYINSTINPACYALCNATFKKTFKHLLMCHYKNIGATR
Method in brief: as §1

[3] = molecular target: T3, M3 muscarinic receptor (Homo sapiens, UniProt P20309); test: Functional mobilization of intracellular calcium (FLIPR) in CHO cells expressing M3; details: for M3 Activity: CHO cells expressing M3, FLIPR calcium assay; for Emax: CHO; for EC50: CHO cells expressing M3, FLIPR calcium
T3 construct: expressed in transfected cells; host or cells: CHO (M3-CHO)
Method in brief: as §1

[4] = molecular target: T4, M4 muscarinic receptor (Homo sapiens, UniProt P08173); test: Functional mobilization of intracellular calcium (FLIPR) in CHO cells expressing M4; details: for M4 Activity: CHO cells expressing M4, FLIPR calcium assay; for Emax: CHO; for EC50: CHO cells expressing M4, FLIPR calcium
T4 construct: expressed in transfected cells; host or cells: CHO (M4-CHO)
T4 sequence (P08173 1-479): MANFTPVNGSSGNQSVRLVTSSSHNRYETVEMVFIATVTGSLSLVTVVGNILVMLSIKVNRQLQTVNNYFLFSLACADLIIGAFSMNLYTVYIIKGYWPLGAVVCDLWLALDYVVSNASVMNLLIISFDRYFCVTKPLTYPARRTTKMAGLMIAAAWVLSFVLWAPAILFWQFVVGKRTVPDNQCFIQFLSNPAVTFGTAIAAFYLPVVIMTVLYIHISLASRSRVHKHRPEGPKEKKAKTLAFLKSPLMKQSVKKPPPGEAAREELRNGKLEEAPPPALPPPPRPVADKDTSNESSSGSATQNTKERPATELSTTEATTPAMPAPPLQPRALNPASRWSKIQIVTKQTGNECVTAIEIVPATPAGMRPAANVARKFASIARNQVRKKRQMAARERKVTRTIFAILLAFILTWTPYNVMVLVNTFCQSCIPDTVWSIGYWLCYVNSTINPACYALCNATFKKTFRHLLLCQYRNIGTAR
Method in brief: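 Read-out: FLIPR fluorescence (ex 488, em 540 nm) over 60 s. Recombinant CHO lines are dye-loaded (Fluo-3 AM or Calcium 3) with 1 mM probenecid. For antagonist mode, compound is pre-incubated 15 min, or co-applied, then carbachol is added at 3× EC80 per subtype.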

[5] = 100% efficacy = maximum response obtained with the Carbachol control
[6] = 100% = maximum response obtained with the Carbachol control, read-out: M1 Efficacy
[7] = 100% = maximum response obtained with the Carbachol control, read-out: M2 Efficacy
[8] = 100% = maximum response obtained with the Carbachol control, read-out: M3 Efficacy
[9] = 100% = maximum response obtained with the Carbachol control, read-out: M4 Efficacy

T3 sequence (P20309 whole entry): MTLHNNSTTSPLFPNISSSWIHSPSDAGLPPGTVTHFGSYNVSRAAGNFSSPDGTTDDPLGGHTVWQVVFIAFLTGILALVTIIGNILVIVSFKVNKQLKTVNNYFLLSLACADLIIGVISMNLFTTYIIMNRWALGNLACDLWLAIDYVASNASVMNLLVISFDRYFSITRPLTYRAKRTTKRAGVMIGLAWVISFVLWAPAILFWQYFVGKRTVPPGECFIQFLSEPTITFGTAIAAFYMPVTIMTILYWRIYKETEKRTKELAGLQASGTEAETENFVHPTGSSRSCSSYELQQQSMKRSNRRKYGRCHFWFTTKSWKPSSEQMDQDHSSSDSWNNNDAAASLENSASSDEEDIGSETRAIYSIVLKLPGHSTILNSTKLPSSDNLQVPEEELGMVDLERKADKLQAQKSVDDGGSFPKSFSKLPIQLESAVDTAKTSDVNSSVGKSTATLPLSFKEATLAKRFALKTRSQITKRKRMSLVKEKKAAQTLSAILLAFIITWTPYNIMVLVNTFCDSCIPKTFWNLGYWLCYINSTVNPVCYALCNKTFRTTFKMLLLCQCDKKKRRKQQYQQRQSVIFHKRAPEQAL

| SMILES | M1 Activity [1] | Emax [1, 5] [%] | M2 Activity [2] | Emax [2, 5] [%] | M3 Activity [3] | Emax [3, 5] [%] | M4 Activity [4] | Emax [4, 5] [%] | EC50 [1] [µM] | Emax [1, 6] [%] | EC50 [2] [µM] | Emax [2, 7] [%] | EC50 [3] [µM] | Emax [3, 8] [%] | EC50 [4] [µM] | Emax [4, 9] [%] |
| --- | --- | --- | --- | --- | --- | --- | --- | --- | --- | --- | --- | --- | --- | --- | --- | --- |
| CCOc1ccc(CN2CCC3(CC[C@H](NC(C)=O)c4ccccc43)CC2)cc1 [compound 234] | ++ (activity was measured to be from 2.0 μM to 5.0 μM) | 25 to 100 | + (activity was measured to be greater than 5.0 μM) | < 25 | + (activity was measured to be greater than 5.0 μM) | < 25 | ++ (activity was measured to be from 2.0 μM to 5.0 μM) | 25 to 100 |  |  |  |  |  |  |  |  |
| COc1cc2c(cc1OC)C1(CCN(C(=O)OC(C)(C)C)CC1)CC2=O [compound 239] | + (activity was measured to be greater than 5.0 μM) | < 25 | + (activity was measured to be greater than 5.0 μM) | < 25 | + (activity was measured to be greater than 5.0 μM) | < 25 | + (activity was measured to be greater than 5.0 μM) | < 25 |  |  |  |  |  |  |  |  |
| CCN(C(=O)CCC(C)=O)[C@@H]1CCC2(CCN(CCC(C)(C)C)CC2)c2ccccc21 [compound 210] | +++ (activity was measured to be less than 2.0 μM) | < 25 | + (activity was measured to be greater than 5.0 μM) | < 25 | + (activity was measured to be greater than 5.0 μM) | < 25 | +++ (activity was measured to be less than 2.0 μM) | 25 to 100 |  |  |  |  |  |  |  |  |
| CCC(CC)N1CCC2(CC[C@H](NC(C)=O)c3ccccc32)CC1 [Compound No. 61, (S)N-(1′-(pentan-3-yl)-3,4-dihydro-2H-spiro[naphthalene-1,4′-piperidine]-4-yl)acetamide] |  |  |  |  |  |  |  |  | > 5 | 25 to 100 | > 5 | < 25 | > 5 | < 25 | > 5 | 25 to 100 |
| CCCCN1CCC2(CC[C@H](NC(C)=O)c3ccccc32)CC1 [compound 4] |  |  |  |  |  |  |  |  | 2 to 5 | 25 to 100 | > 5 | < 25 | > 5 | < 25 | 2 to 5 | 25 to 100 |
| CC(C)(C)CCN1CCC2(CC[C@H](NC(=O)C3CCCO3)c3ccc(F)cc32)CC1 (stereo partly shown) [compound 27] |  |  |  |  |  |  |  |  | < 2 | 25 to 100 | < 2 | < 25 | > 5 | < 25 | < 2 | 25 to 100 |
| C[C@@H](C(=O)N[C@@H]1CCC2(CCN(CCC(C)(C)C)CC2)c2ccccc21)N1CCCC1=O [compound 146] |  |  |  |  |  |  |  |  | > 5 | 25 to 100 | > 5 | < 25 | > 5 | < 25 | < 2 | 25 to 100 |
| CC(C)NC(=O)C1CCC2(CCN(CCC(C)(C)C)CC2)c2ccccc21 (stereo not shown) [compound 35] |  |  |  |  |  |  |  |  | > 5 | < 25 | > 5 | < 25 | > 5 | < 25 | < 2 | 25 to 100 |
| CC(=O)N[C@H]1CCC2(CCN(C(=O)OC(C)(C)C)CC2)c2ccccc21 [compound 272] | + (activity was measured to be greater than 5.0 μM) | < 25 | + (activity was measured to be greater than 5.0 μM) | < 25 | + (activity was measured to be greater than 5.0 μM) | < 25 | + (activity was measured to be greater than 5.0 μM) | < 25 |  |  |  |  |  |  |  |  |
| CC(C)(C)CCN1CCC2(CC[C@H](NC(=O)C3CCOCC3)c3ccccc32)CC1 [compound 209] | +++ (activity was measured to be less than 2.0 μM) | 25 to 100 | + (activity was measured to be greater than 5.0 μM) | < 25 | + (activity was measured to be greater than 5.0 μM) | < 25 | +++ (activity was measured to be less than 2.0 μM) | 25 to 100 |  |  |  |  |  |  |  |  |
| CC(=O)N[C@H]1CC2(CCN(CC(=O)NCC(C)C)CC2)c2ccccc21 [compound 235] | + (activity was measured to be greater than 5.0 μM) | < 25 | + (activity was measured to be greater than 5.0 μM) | < 25 | + (activity was measured to be greater than 5.0 μM) | < 25 | + (activity was measured to be greater than 5.0 μM) | < 25 |  |  |  |  |  |  |  |  |
| CC(C)(C)CCN1CCC2(CC[C@H](NC(=O)CCCN3CCCC3=O)c3ccccc32)CC1 [compound 197] | +++ (activity was measured to be less than 2.0 μM) | 25 to 100 | +++ (activity was measured to be less than 2.0 μM) | 25 to 100 | + (activity was measured to be greater than 5.0 μM) | < 25 | +++ (activity was measured to be less than 2.0 μM) | 25 to 100 |  |  |  |  |  |  |  |  |
| CN(C)C(=O)N(C)[C@H]1CCC2(CCN(CCC(C)(C)C)CC2)c2ccccc21 [compound 51] |  |  |  |  |  |  |  |  | < 2 | 25 to 100 | > 5 | < 25 | > 5 | < 25 | < 2 | 25 to 100 |
| CC(C)CCN1CCC2(CC1)CC(C(=O)O)c1ccccc12 (stereo not shown) [compound 259] | + (activity was measured to be greater than 5.0 μM) | 25 to 100 | + (activity was measured to be greater than 5.0 μM) | < 25 | + (activity was measured to be greater than 5.0 μM) | < 25 | + (activity was measured to be greater than 5.0 μM) | < 25 |  |  |  |  |  |  |  |  |
| CC(C)(C)CCN1CCC2(CC1)CC(F)(F)C(=O)c1ccccc12 [compound 117] |  |  |  |  |  |  |  |  | < 2 | 25 to 100 | < 2 | 25 to 100 | > 5 | < 25 | < 2 | 25 to 100 |
| CC(=O)N[C@@H]1c2ccccc2C2(CCN(CCC(C)(C)C)CC2)CC1(F)F [compound 32] |  |  |  |  |  |  |  |  | < 2 | 25 to 100 | < 2 | 25 to 100 | > 5 | < 25 | < 2 | 25 to 100 |
| CC(C)(C)CCN1CCC2(CC[C@H](NC(=O)C(F)(F)F)c3ccccc32)CC1 [compound 224] | +++ (activity was measured to be less than 2.0 μM) | 25 to 100 | + (activity was measured to be greater than 5.0 μM) | < 25 | + (activity was measured to be greater than 5.0 μM) | < 25 | +++ (activity was measured to be less than 2.0 μM) | 25 to 100 |  |  |  |  |  |  |  |  |
